Assay [1] concerns the target T1, human VR1 (Homo sapiens, UniProt Q8NER1).
T1 construct: expressed in transfected cells
Put plainly: pH-based assay of human VR1 (FLIPR calcium influx). The class given is cell-based. To be noted: agonist buffer pH 5.5, HEK293-EcR cells expressing human VR1, n=4. How it is done: (§1) Human VR1 Cloning: Human spinal cord RNA (commercially available from Clontech, Palo Alto, Calif.) was used. Reverse transcription was conducted on 1.0 μg total RNA using Thermoscript Reverse Transcriptase (commercially available from Invitrogen) and oligo dT primers as detailed in its product description. Reverse transcription reactions were incubated at 55° C. for 1 h, heat-inactivated at 85° C. for 5 min, and RNase H-treated at 37° C. for 20 min.
(§2) Human VR1 cDNA sequence was obtained by comparison of the human genomic sequence, prior to annotation, to the published rat sequence. Intron sequences were removed and flanking exonic sequences were joined to generate the hypothetical human cDNA. Primers flanking the coding region of human VR1 were designed as follows: forward primer, […]; and reverse primer, […]. […]
(§3) Generation of Inducible Cell Lines: Unless noted otherwise, cell culture reagents were purchased from Life Technologies of Rockville, Md. […] On the day of assay, cells were loaded with Fluo-4 (a calcium-sensitive dye that is commercially available from Molecular Probes) and CAP-mediated calcium influx was measured using a FLIPR as described below. […]

In assay [2] the target is T1, human VR1. Description: Capsaicin-based assay of human VR1 (FLIPR calcium influx). It is filed as cell-based. To be noted: activation by capsaicin (400 nM), HEK293-EcR cells expressing human VR1, n=3. How it is done:
as §1, §2, §3

Our source for the IC50 values is patent US7994177B2, “Therapeutic agents useful for treating pain” (Purdue Pharma L.P., priority 2003, dated 2011).

T1 sequence (Q8NER1 whole entry): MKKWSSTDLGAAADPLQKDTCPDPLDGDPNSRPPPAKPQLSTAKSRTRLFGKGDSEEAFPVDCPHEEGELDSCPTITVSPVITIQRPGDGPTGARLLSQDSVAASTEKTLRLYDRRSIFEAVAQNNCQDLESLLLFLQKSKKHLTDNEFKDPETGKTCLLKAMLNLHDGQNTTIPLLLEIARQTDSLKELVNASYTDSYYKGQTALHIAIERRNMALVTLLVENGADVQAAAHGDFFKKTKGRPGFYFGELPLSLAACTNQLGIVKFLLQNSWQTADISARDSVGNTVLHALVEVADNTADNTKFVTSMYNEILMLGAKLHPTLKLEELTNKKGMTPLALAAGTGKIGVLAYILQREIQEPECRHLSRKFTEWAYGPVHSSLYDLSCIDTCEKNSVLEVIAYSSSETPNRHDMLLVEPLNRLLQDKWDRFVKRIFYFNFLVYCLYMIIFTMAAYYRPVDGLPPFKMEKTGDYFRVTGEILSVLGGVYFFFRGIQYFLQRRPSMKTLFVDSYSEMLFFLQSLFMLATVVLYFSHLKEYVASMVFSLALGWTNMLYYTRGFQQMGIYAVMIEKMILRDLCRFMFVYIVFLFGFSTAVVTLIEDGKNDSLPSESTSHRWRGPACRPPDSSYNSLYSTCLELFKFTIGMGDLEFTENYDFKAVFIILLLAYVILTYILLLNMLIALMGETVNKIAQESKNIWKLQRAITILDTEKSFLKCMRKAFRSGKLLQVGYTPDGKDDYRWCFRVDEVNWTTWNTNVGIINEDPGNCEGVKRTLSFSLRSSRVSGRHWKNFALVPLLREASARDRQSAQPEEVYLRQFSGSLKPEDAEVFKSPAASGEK

For the molecule `Cc1cccnc1-c1ccc(C(=O)Nc2ccc(C(C)(C)C)cc2)nc1` [E35(a)], the IC50 (usually the concentration needed to halve the response being measured) was determined as 826 ± 248 nM on human VR1 [1] and 65.5 ± 17.3 nM at human VR1 [2].
